Data as given in PubChem BioAssay (NCI).
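Exposure lasted 48 hours, with cells grown in 96-well plates and compounds tested at five concentrations. TGI: concentration producing complete growth inhibition.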

What was measured:
Test in all cases: growth of human tumour cells (NCI), 48 h
[1] = tested on: 786-0 renal
[2] = tested on: A498 renal
[3] = tested on: A549 NSCLC
[4] = tested on: ACHN renal
[5] = tested on: BT-549 breast
[6] = tested on: CAKI-1 renal
[7] = tested on: CCRF-CEM leukemia
[8] = tested on: COLO 205 colon
[9] = tested on: DU-145 prostate
[10] = tested on: EKVX NSCLC
[11] = tested on: HCC-2998 colon
[12] = tested on: HCT-116 colon
[13] = tested on: HCT-15 colon
[14] = tested on: HL-60(TB) leukemia
[15] = tested on: HOP-62 NSCLC
[16] = tested on: HOP-92 NSCLC
[17] = tested on: HS 578T breast
[18] = tested on: IGROV1 ovarian
[19] = tested on: K-562 leukemia
[20] = tested on: KM12 colon
[21] = tested on: M14 melanoma
[22] = tested on: MALME-3M melanoma
[23] = tested on: MCF7 breast
[24] = tested on: MDA-MB-231 breast
[25] = tested on: MDA-MB-435
[26] = tested on: MDA-N
[27] = tested on: MOLT-4 leukemia
[28] = tested on: NCI-H226 lung
[29] = tested on: NCI-H23 lung
[30] = tested on: NCI-H460 lung
[31] = tested on: NCI-H522 lung
[32] = tested on: NCI/ADR-RES ovarian
[33] = tested on: OVCAR-3 ovarian
[34] = tested on: OVCAR-4 ovarian
[35] = tested on: OVCAR-5 ovarian
[36] = tested on: OVCAR-8 ovarian
[37] = tested on: PC-3 prostate
[38] = tested on: RPMI-8226 leukemia
[39] = tested on: RXF 393 renal
[40] = tested on: SF-268 CNS
[41] = tested on: SF-295 CNS
[42] = tested on: SF-539 CNS
[43] = tested on: SK-MEL-2 melanoma
[44] = tested on: SK-MEL-28 melanoma
[45] = tested on: SK-MEL-5 melanoma
[46] = tested on: SK-OV-3 ovarian
[47] = tested on: SN12C renal
[48] = tested on: SNB-19 CNS
[49] = tested on: SNB-75 CNS
[50] = tested on: SR leukemia
[51] = tested on: SW-620 colon
[52] = tested on: T-47D breast
[53] = tested on: TK-10 renal
[54] = tested on: U251 CNS
[55] = tested on: UACC-257 melanoma
[56] = tested on: UACC-62 melanoma
[57] = tested on: UO-31 renal

Measured: TGI

COc1ccc2c(c1OC)C(=O)N1C2=Cc2c(cc3c(c2OC)OCO3)CC1N(C)C (configuration not stated)
99.6 µM: [38]
80.1 µM: [14]
74.4 µM: [52]
> 100 µM: all other assays above
